Measurements published in publication PMC12974487, “Inhibition of FicD-mediated AMPylation and deAMPylation by isoprenoid diphosphates” (Proceedings of the National Academy of Sciences of the …, 2026).
“Also recorded” adds a separate entry of the source.

Target: T1, FicD^R374H (Homo sapiens, UniProt Q9BVA6, R374H)
T1 construct: Wild-type FicD (residues 105-458) and all mutants were expressed as N-terminal 6xHis-Sumo fusions; 6xHis-Sumo (N, cleaved yes); made in house; host or cells: Rosetta(DE3) E. coli
T1 sequence (Q9BVA6 105-458 R374H): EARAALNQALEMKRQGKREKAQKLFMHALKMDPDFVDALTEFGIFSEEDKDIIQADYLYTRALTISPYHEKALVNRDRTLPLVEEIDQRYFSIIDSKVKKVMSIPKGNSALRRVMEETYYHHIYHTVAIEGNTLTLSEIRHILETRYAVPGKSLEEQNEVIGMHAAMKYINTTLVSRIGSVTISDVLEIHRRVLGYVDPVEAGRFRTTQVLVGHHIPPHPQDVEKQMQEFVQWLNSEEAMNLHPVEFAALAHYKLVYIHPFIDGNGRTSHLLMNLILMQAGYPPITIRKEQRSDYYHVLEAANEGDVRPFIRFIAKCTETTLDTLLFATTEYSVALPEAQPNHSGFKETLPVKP
Experiment: AMPylation of Δ26hBiP^T229A by pathogenic variant FicD^R374H
Assay type: biochemical
Conditions: indicated concentrations of FPP
Source text: Fig. 5. Crystal structure of FPP inhibitor bound to FicD active site. […] FPP (cyan stick) and Mg^2+ (cyan sphere) in the pocket of FicD shown as APBS electrostatic surface with positive areas in blue, negative in red, and neutral in white (contour level: ±5 kBT/e) (Right). […] (C–E) AMPylation assays of Δ26hBiP^T229A in the presence of the indicated concentration of FPP using the pathogenic human variants (C) FicD^R371S, (D) FicD^R374H and (E) FicD^R374C. AMPylated BiP and Fic were quantified by immunodetection, and total BiP was quantified by CBB. […]
Isothermal Titration Calorimetry
Proteins were dialyzed against 25mM HEPES pH 7.4/100mM KCl/10% glycerol prior to titration.
Dialyzed proteins were then spun down at 21,000G for 15 minutes at 4C to remove trace insoluble material. The protein concentration was measured spectrophotometrically and then diluted to working concentration with 25mM HEPES pH 7.4/100mM KCl/10% glycerol. MgCl2 was added to proteins to a final concentration of 4mM. ITC experiments were performed in a Micro-Cal PEAQ-ITC (Malvern Panalytical, Worcestershire, UK) calorimeter with a stirred 206.2 μL reaction cell held at 20 °C. 250μM FPP was titrated into 25uM Δ104hFicL258D with 750rpm stirring. The first injection was 0.5 μL, followed by twenty 1.9 μL injections. […]
Thermogram and binding figures were plotted in […]

CC(C)=CCC/C(C)=C/CC/C(C)=C/COP(=O)(O)OP(=O)(O)O [FPP, farnesyl-pyrophosphate]
FPP inhibition of FicD^R374H mediated AMPylation: inhibition; also recorded: inhibited
